In ChEMBL document CHEMBL1201861, “Genomics of Drug Sensitity in Cancer screening data, Wellcome Trust Sanger Institute”:

Assays:
Experiment in all cases: cells
Format in all cases: functional, cell-based, Homo sapiens
SW1573 = details: Homo sapiens, SW1573;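 note: growth inhibition of SW1573 cells, read out with a cell viability assay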
Description: SANGER: Inhibition of human SW1573 cell growth in a cell viability assay.

FTC-133 = details: Homo sapiens, FTC-133
GCIY = details: Homo sapiens, GCIY;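 note: growth inhibition of the human GCIY cell line, read out by a cell viability assay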
Description: SANGER: Inhibition of human GCIY cell growth in a cell viability assay.

SCC-9 = details: Homo sapiens, SCC-9;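 note: Read-out is a cell viability assay, with values giving inhibition of cell growth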
Description: SANGER: Inhibition of human SCC-9 cell growth in a cell viability assay.

TYK-nu = details: Homo sapiens, TYK-nu;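 note: growth inhibition of human TYK-nu cells, read out by a cell viability assay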
Description: SANGER: Inhibition of human TYK-nu cell growth in a cell viability assay.

C32 = details: Homo sapiens, C32;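 note: cell viability assay, with IC50 reflecting inhibition of C32 cell growth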
Description: SANGER: Inhibition of human C32 cell growth in a cell viability assay.

JAR = details: Homo sapiens, JAR;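 note: growth inhibition of human JAR cells determined with a cell viability assay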
Description: SANGER: Inhibition of human JAR cell growth in a cell viability assay.

C2BBe1 = details: Homo sapiens, C2BBe1;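 note: growth inhibition of C2BBe1 cells, read out through a viability assay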
Description: SANGER: Inhibition of human C2BBe1 cell growth in a cell viability assay.

KGN = details: Homo sapiens, KGN;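 note: growth inhibition of KGN cells, read out with a cell viability assay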
Description: SANGER: Inhibition of human KGN cell growth in a cell viability assay.

TE-8 = details: Homo sapiens, TE-8;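 note: growth inhibition of TE-8 cells, measured with a cell viability readout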
Description: SANGER: Inhibition of human TE-8 cell growth in a cell viability assay.

S-117 = details: Homo sapiens, S-117
Description: SANGER: Inhibition of human S-117 cell growth in a cell viability assay.

RCC10RGB = details: Homo sapiens, RCC10RGB;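 note: growth inhibition of human RCC10RGB cells, read out by a cell viability assay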
Description: SANGER: Inhibition of human RCC10RGB cell growth in a cell viability assay.

769-P = details: Homo sapiens, 769-P
Description: SANGER: Inhibition of human 769-P cell growth in a cell viability assay.

KYSE-140 = details: Homo sapiens, KYSE-140;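 note: cell viability assay measuring growth inhibition in human KYSE-140 cells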
Description: SANGER: Inhibition of human KYSE-140 cell growth in a cell viability assay.

NCI-H446 = details: Homo sapiens, NCI-H446;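 note: growth inhibition of NCI-H446 cells determined by a cell viability assay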
Description: SANGER: Inhibition of human NCI-H446 cell growth in a cell viability assay.

LS-411N = details: Homo sapiens, LS-411N
Hs-578T = details: Homo sapiens, Hs-578T
Description: SANGER: Inhibition of human Hs-578-T cell growth in a cell viability assay.

NCI-H510A = details: Homo sapiens, NCI-H510A;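 note: growth inhibition of NCI-H510A cells, read out with a cell viability assay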
Description: SANGER: Inhibition of human NCI-H510A cell growth in a cell viability assay.

PANC-08-13 = details: Homo sapiens, PANC-08-13;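 note: cell growth inhibition, measured with a cell viability assay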
Description: SANGER: Inhibition of human PANC-08-13 cell growth in a cell viability assay.

D-542MG = details: Homo sapiens, D-542MG
Description: SANGER: Inhibition of human D-542MG cell growth in a cell viability assay.

CFPAC-1 = details: Homo sapiens, CFPAC-1;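 note: cell viability readout used to gauge suppression of CFPAC-1 cell proliferation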
Description: SANGER: Inhibition of human CFPAC-1 cell growth in a cell viability assay.

C-33-A = details: Homo sapiens, C-33-A;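 note: cell viability assay measuring growth inhibition of C-33-A cells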
Description: SANGER: Inhibition of human C-33-A cell growth in a cell viability assay.

EW-16 = details: Homo sapiens, EW-16;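 note: growth inhibition of human EW-16 cells, read out as cell viability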
Description: SANGER: Inhibition of human EW-16 cell growth in a cell viability assay.

EFM-19 = details: Homo sapiens, EFM-19;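 note: growth inhibition of human EFM-19 cells, measured in a cell viability assay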
Description: SANGER: Inhibition of human EFM-19 cell growth in a cell viability assay.

NCI-H2122 = details: Homo sapiens, NCI-H2122;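 note: growth inhibition of the cells, read out with a cell viability assay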
Description: SANGER: Inhibition of human NCI-H2122 cell growth in a cell viability assay.

HD-MY-Z = details: Homo sapiens, HD-MY-Z;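 note: growth inhibition of HD-MY-Z cells, read out with a cell viability assay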
Description: SANGER: Inhibition of human HD-MY-Z cell growth in a cell viability assay.

DU-4475 = details: Homo sapiens, DU-4475
Description: SANGER: Inhibition of human DU-4475 cell growth in a cell viability assay.

COLO-684 = details: Homo sapiens, COLO-684
Description: SANGER: Inhibition of human COLO-684 cell growth in a cell viability assay.

NCI-H1563 = details: Homo sapiens, NCI-H1563;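 note: growth inhibition of human NCI-H1563 cells, read out with a cell viability assay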
Description: SANGER: Inhibition of human NCI-H1563 cell growth in a cell viability assay.

ES6 = details: Homo sapiens, ES6;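 note: growth inhibition of human ES6 cells, read out with a cell viability assay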
Description: SANGER: Inhibition of human ES6 cell growth in a cell viability assay.

Ca-Ski = details: Homo sapiens, Ca-Ski;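 note: cell viability assay measuring inhibition of Ca-Ski cell growth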
Description: SANGER: Inhibition of human Ca-Ski cell growth in a cell viability assay.

OE33 = details: Homo sapiens, OE33;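 note: growth inhibition of human OE33 cells, measured by a cell viability assay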
Description: SANGER: Inhibition of human OE33 cell growth in a cell viability assay.

Calu-3 = details: Homo sapiens, Calu-3;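 note: growth inhibition of human Calu-3 cells, determined with a cell viability assay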
Description: SANGER: Inhibition of human Calu-3 cell growth in a cell viability assay.

BEN = details: Homo sapiens, BEN;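 note: growth inhibition of the BEN cell line, read out with a cell viability assay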
Description: SANGER: Inhibition of human BEN cell growth in a cell viability assay.

AN3-CA = details: Homo sapiens, AN3-CA;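 note: growth inhibition of human AN3-CA cells measured by a cell viability assay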
Description: SANGER: Inhibition of human AN3-CA cell growth in a cell viability assay.

MDA-MB-231 = details: Homo sapiens, MDA-MB-231
Description: SANGER: Inhibition of human MDA-MB-231 cell growth in a cell viability assay.

UO-31 = details: Homo sapiens, UO-31;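 note: cell viability assay measuring inhibition of cell growth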
Description: SANGER: Inhibition of human U031 cell growth in a cell viability assay.

no-10 = details: Homo sapiens;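 note: growth inhibition of no-10 cells, read out with a cell viability assay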
Description: SANGER: Inhibition of human no-10 cell growth in a cell viability assay.

Daoy = details: Homo sapiens, Daoy;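 note: daoy cell growth inhibition, read out as cell viability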
Description: SANGER: Inhibition of human Daoy cell growth in a cell viability assay.

HAL-01 = details: Homo sapiens, HAL-01;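 note: growth inhibition of human HAL-01 cells, read out with a cell viability assay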
Description: SANGER: Inhibition of human HAL-01 cell growth in a cell viability assay.

SK-PN-DW = details: Homo sapiens, SK-PN-DW;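 note: growth inhibition measured with a viability assay on these cells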
Description: SANGER: Inhibition of human SK-PN-DW cell growth in a cell viability assay.

In the case of `CO[C@H]1C[C@@H]2CC[C@@H](C)[C@@](O)(O2)C(=O)C(=O)N2CCCC[C@H]2C(=O)O[C@H]([C@H](C)C[C@@H]2CC[C@@H](OC(=O)C(C)(CO)CO)[C@H](OC)C2)CC(=O)[C@H](C)/C=C(\C)[C@@H](O)[C@@H](OC)C(=O)[C@H](C)C[C@H](C)/C=C/C=C/C=C/1C` [TEMSIROLIMUS], the IC50 (SW1573) is reported as greater than 200 nM, the IC50 (FTC-133) is reported as 50.6 nM and the IC50 (GCIY) is reported as greater than 200 nM. For the same compound, the IC50 (SCC-9) was greater than 200 nM, the IC50 (TYK-nu) was 0.778 nM and the IC50 (C32) was 46.6 nM. It also gave an IC50 (JAR) greater than 200 nM, an IC50 (C2BBe1) greater than 200 nM and an IC50 (KGN) greater than 200 nM. For the same compound, the IC50 (TE-8) was greater than 200 nM, the IC50 (S-117) was 105 nM and the IC50 (RCC10RGB) was greater than 200 nM. For the same compound, the IC50 (769-P) was greater than 200 nM, the IC50 (KYSE-140) was 156 nM and the IC50 (NCI-H446) was greater than 200 nM. For the same compound, the IC50 (LS-411N) was greater than 200 nM, the IC50 (Hs-578T) was 65.9 nM and the IC50 (NCI-H510A) was greater than 200 nM. It also gave an IC50 (PANC-08-13) greater than 200 nM, an IC50 (D-542MG) of 77.9 nM and an IC50 (CFPAC-1) greater than 200 nM. For the same compound, the IC50 (C-33-A) was greater than 200 nM, the IC50 (EW-16) was 28.6 nM and the IC50 (EFM-19) was 81.5 nM. It also gave an IC50 (NCI-H2122) greater than 200 nM, an IC50 (HD-MY-Z) of 21.6 nM and an IC50 (DU-4475) of 11.7 nM. For the same compound, the IC50 (COLO-684) was 13.3 nM, the IC50 (NCI-H1563) was 106 nM and the IC50 (ES6) was greater than 200 nM. It also gave an IC50 (Ca-Ski) greater than 200 nM, an IC50 (OE33) greater than 200 nM and an IC50 (Calu-3) greater than 200 nM. It also gave an IC50 (BEN) of 31.5 nM, an IC50 (AN3-CA) of 56.9 nM and an IC50 (MDA-MB-231) greater than 200 nM. It also gave an IC50 (UO-31) greater than 200 nM, an IC50 (no-10) greater than 200 nM and an IC50 (Daoy) of 51.7 nM. For the same compound, the IC50 (HAL-01) was greater than 200 nM and the IC50 (SK-PN-DW) was greater than 200 nM.
